According to patent publication US11116736B2, “2-amino-N'-benzylideneacetohydrazides and derivatives for the management of CFTR protein mediated diseases” (Emory University, priority 2015, dated 2021):
Read-outs that look alike come from different tables or passages of the source.

Experiments:
F508del-hCFTR = biological target: T1, F508del-hCFTR (Homo sapiens, UniProt P13569, DEL508-508); experiment: Two-electrode voltage clamp (TEVC) on F508del-hCFTR expressed in Xenopus oocytes; type: cell-based; details: for potentiation of F508del-hCFTR, summary in words: FIGS. 4A and 4B under modified conditions
T1 construct: expressed in transfected cells; host or cells: Xenopus laevis oocytes injected with cRNA; The mutant was made by Quikchange mutagenesis of hCFTR/pGEMHE
Method: Nearly 90% of CF patients in the United States bear at least one F508del-CFTR allele; OSSK-3, and OSSK-2 were studied on F508del-hCFTR using the TEVC technique at VM=−60 mV.
(§1) Human CFTR cRNAs used in electrophysiology experiments were prepared from constructs encoding WT-hCFTR in the pGEMHE vector (hCFTR/pGEMHE kindly provided by Dr. D. Gadsby, Rockefeller University). The mutants of hCFTR used in this study were prepared using site-directed mutagenesis with the Quikchange protocol (Stratagene, La Jolla, Calif.) and mutant constructs were verified by sequencing across the entire open reading frame before use. Xenopus laevis oocytes were injected with 0.4-10 ng of CFTR cRNAs, and were incubated at 17° C. in modified Liebovitz's L-15 media with the addition of HEPES (pH 7.5), penicillin, and streptomycin. Recordings were made typically 24-96 hours after the injection of cRNAs.
(§2) Standard two-electrode voltage clamp (TEVC) techniques were used to study the effects of chemicals with application of reagents to the extracellular bath. Each oocyte was injected with CFTR cRNA along with cRNA encoding the beta2-adrenergic receptor (β2AR). Electrode resistances measured 0.5-1.4 MΩ when filled with 3 M KCl and measured in standard ND96 bath solution that contained (in mM): 96 NaCl, 2 KCl, 1 MgCl2, and 5 HEPES (pH 7.5). CFTR channels were activated by exposure to 10 μM isoproterenol (ISO) in ND 96 and alternatively assayed in the presence or absence of different concentrations of compounds in the bath solution, typically in the continuing presence of ISO. Currents were acquired with an Axoclamp 900A amplifier and Clampex 10.2 software, and current data were digitized at 2 kHz.

WT-hCFTR [1] = biological target: T2, WT-hCFTR (Homo sapiens, UniProt P13569); experiment: Two-electrode voltage clamp (TEVC) on wildtype hCFTR expressed in Xenopus oocytes; type: cell-based; details: for Kd: VM=−60 mV; for Kd / effect on hCFTR current (block / potentiation), in words: ~50 s extracellular exposure
T2 construct: expressed in transfected cells; host or cells: Xenopus laevis oocytes injected with cRNA (pGEMHE construct from Dr. D. Gadsby)
Method: The effects of OSSK-2 and OSSK-3 on hCFTR were tested by expression in Xenopus oocytes. Representative current traces using the two-electrode voltage clamp technique (TEVC) are shown in FIGS. 2A and 2B for OSSK-3 and FIG. 2C for OSSK-2.
as §1, §2

multiple CFTR mutations = details: cited from earlier work
WT-hCFTR [2] = biological target: T2, WT-hCFTR; details: cited from earlier work

T2 sequence (P13569 whole entry): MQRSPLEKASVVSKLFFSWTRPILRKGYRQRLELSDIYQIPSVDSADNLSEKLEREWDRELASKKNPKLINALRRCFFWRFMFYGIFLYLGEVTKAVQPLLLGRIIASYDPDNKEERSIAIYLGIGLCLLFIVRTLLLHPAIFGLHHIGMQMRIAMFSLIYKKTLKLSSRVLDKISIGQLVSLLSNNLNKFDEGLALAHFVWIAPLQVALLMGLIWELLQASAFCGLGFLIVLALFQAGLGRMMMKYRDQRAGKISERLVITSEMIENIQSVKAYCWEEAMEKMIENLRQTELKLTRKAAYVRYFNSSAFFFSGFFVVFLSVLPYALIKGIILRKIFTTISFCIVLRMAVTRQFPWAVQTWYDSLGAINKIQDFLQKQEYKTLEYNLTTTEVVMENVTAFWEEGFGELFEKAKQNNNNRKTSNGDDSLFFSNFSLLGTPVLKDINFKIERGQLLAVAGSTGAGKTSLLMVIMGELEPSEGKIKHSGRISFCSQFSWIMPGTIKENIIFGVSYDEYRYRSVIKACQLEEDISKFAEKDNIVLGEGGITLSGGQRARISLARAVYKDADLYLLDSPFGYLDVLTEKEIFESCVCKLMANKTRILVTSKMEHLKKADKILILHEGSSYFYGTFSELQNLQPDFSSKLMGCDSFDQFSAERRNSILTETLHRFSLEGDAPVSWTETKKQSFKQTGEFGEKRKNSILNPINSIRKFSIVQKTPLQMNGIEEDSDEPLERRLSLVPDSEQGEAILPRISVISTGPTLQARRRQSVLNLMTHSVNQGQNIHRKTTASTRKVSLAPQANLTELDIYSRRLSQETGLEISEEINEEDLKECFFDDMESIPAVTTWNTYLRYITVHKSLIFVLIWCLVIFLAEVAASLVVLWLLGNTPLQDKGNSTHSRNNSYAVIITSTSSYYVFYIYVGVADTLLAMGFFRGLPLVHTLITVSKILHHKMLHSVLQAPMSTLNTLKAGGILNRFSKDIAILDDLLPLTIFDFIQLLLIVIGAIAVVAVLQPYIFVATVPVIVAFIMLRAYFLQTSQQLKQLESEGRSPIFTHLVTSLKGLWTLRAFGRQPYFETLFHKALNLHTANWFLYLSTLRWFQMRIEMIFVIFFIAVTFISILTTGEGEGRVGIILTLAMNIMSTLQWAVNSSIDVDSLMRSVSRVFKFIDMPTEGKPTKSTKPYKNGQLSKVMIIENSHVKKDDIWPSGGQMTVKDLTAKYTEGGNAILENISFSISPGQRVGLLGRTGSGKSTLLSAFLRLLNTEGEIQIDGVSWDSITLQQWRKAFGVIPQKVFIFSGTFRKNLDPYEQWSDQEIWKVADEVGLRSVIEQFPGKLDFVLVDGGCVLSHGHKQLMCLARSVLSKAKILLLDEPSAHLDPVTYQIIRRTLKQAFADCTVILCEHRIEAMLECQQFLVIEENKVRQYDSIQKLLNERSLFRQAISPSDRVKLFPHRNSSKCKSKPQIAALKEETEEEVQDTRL
T1 sequence (P13569 with tags, fused parts or gaps DEL508-508): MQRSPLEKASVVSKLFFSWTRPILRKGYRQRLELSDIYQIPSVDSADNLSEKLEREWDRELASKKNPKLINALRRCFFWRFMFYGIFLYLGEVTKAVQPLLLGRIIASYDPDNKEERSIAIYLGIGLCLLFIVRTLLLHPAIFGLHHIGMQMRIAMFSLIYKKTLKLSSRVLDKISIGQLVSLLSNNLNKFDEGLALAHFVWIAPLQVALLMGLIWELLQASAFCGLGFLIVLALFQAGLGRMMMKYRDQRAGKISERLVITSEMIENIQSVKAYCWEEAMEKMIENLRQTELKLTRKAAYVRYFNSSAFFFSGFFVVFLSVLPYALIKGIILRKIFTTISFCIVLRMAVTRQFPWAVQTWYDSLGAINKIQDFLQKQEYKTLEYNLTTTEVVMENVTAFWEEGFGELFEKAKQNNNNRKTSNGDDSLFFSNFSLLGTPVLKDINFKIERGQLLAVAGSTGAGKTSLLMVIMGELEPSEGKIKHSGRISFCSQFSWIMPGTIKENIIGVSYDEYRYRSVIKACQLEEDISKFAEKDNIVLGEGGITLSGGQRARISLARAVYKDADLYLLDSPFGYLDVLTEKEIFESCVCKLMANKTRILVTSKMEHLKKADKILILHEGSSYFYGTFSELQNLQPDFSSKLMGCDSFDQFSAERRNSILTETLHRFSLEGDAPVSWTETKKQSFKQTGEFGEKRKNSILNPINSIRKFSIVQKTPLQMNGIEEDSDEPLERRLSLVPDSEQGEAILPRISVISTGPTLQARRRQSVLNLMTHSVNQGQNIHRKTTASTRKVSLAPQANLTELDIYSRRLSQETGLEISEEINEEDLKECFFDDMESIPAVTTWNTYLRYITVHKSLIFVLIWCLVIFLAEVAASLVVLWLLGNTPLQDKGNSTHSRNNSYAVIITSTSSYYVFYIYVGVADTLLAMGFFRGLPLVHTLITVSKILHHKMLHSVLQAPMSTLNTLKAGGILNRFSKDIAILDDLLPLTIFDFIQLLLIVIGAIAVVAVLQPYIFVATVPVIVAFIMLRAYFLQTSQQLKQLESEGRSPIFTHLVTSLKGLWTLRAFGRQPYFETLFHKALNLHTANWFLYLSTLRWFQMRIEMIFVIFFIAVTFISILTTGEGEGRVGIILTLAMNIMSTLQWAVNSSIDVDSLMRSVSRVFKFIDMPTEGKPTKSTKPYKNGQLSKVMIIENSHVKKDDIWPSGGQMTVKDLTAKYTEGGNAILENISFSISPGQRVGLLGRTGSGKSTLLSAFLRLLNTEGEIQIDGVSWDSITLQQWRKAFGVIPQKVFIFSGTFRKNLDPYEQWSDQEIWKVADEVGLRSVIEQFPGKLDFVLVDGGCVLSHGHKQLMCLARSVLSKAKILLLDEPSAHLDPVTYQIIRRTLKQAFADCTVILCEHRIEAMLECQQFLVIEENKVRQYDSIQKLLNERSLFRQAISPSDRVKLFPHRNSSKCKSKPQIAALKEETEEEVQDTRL

SMILES: Cc1ccc(NCC(=O)N/N=C/c2cc(Br)c(O)c(Br)c2O)cc1 [OSSK-3, (E)-N′-(3,5-dibromo-2,4-dihydroxybenzylidene)-2-(p-tolylamino)acetohydrazide]
- potentiation of F508del-hCFTR, summary in words (F508del-hCFTR): very strongly potentiate F508del-hCFTR
- effect on F508del-hCFTR current (block / potentiation), in words (F508del-hCFTR; VM=−60 mV, 5 μM, ~50 s extracellular exposure): very weak initial block that was followed by significantly stronger potentiation compared to the potentiation of WT-hCFTR
- potentiation of WT-hCFTR, summary in words (WT-hCFTR [1]): mildly potentiate WT-hCFTR
- Kd (WT-hCFTR [1]; read-out: apparent Kd for block of hCFTR): 33 µM
- Kd (WT-hCFTR [1]; read-out: apparent Kd for potentiation of hCFTR): 0.0317 µM
- effect on hCFTR current (block / potentiation), in words (WT-hCFTR [1]): both block as well as potentiation of hCFTR

SMILES: CC(C)(C)c1cc(C(C)(C)C)c(NC(=O)c2c[nH]c3ccccc3c2=O)cc1O [VX-770, ivacaftor]
- potentiation of mutant CFTR, in words (multiple CFTR mutations): strongly potentiates multiple CFTR mutations
- potentiation of WT-hCFTR, in words (WT-hCFTR [2]): only mildly potentiates WT-hCFTR

SMILES: Cc1cccc(NCC(=O)N/N=C/c2cc(Br)c(O)c(Br)c2O)c1 [OSSK-2, (E)-N′-(3,5-dibromo-2,4-dihydroxybenzylidene)-2-(m-tolylamino)acetohydrazide]
- potentiation of F508del-hCFTR, summary in words (F508del-hCFTR): very strongly potentiate F508del-hCFTR
- potentiation of WT-hCFTR, summary in words (WT-hCFTR [1]): mildly potentiate WT-hCFTR
- effect on hCFTR current (block / potentiation), in words (WT-hCFTR [1]): very weak block on hCFTR without obvious potentiation
